The values that follow come from paper PMC9968170 (Pharmaceutics, 2023).

The conditions of data set [1]: FUR alone 5 mg/kg PO.
The conditions of data set [2]: cited from earlier work.
In data set [3] the test system is Bcrp. More on the design: method as in PMID 31868552. To be noted: rats, cited from earlier work.
The nature of data set [4]: PK of NOV (oral, given with FUR) in rats. It is filed as in vivo, Sprague-Dawley rats. As to conditions: NOV 20 mg/kg PO; for CL renal: Sprague-Dawley, rat, urine and whole blood, read-out: NOV renal clearance (CLR) (converted). The protocol: The rats were housed 2–3 per cage in a specific-pathogen-free facility with controlled light (14/10 h, light/dark cycle), temperature (20–26 °C), and humidity (50 ± 20%).
For groups 2 and 4, the rats were fasted between 4 h prior to dosing and 2 h post-dose with free access to water. […] The blood samples (25 µL) were collected in duplicate in 1 mL tubes and mixed with an equal volume of water containing heparin (30 IU/mL containing 0.05% formic acid) at pre-dose, 0.25, 0.5, 0.75, 1, 1.5, 2, 4, and 6 h.
Next, 300 µL of acetonitrile containing FUR-d5 (as internal standard; 300 ng/mL) was added to 50 µL of the calibration curve standards, QC samples, and rat blood samples to precipitate blood proteins. […] One μL of the sample was injected and LC separation was achieved using an Acquity UPLC HSS T3 column (100Å, 1.8 µm, 1 mm × 100 mm) and mobile phase (A: water with 0.1% formic acid and B: acetonitrile with 0.1% formic acid; 50 μL/min flow) with a gradient program: 0.0–1.5 min (5% B), 1.5–3.5 min (5–70% B), 3.5–5 min (70–90% B), 5–7.5 min (90% B), and 7.5–7.6 min (90–5% B), followed by 5% B until 8.5 min. […] The cone voltage (CV) was 25 V.
Similarly, 25 µL of urine sample (diluted 10-fold with water containing 0.1% formic acid) was mixed with 75 µL of acetonitrile containing 100 ng/mL of FUR-d5.
(1) CLR=Ae 0−6 h/AUC0−6 h where, Ae is the cumulative amount of drug excreted unchanged in the urine between 0 to 6 h.

The subject of data set [5] is human Bcrp. As to conditions: cited from earlier work.
Data set [6] relates to OAT1. More on the design: method as in PMID 16489126, PMID 26700956, PMID 19282394. To be noted: human OAT1; cited from earlier work.
In data set [7] the test system is OAT3. More on the design: method as in PMID 16489126, PMID 26700956, PMID 19282394. As to conditions: human OAT3; cited from earlier work.

Each structure is given as a SMILES string. Read-outs that look alike come from different tables or passages of the source.

Regarding `NS(=O)(=O)c1cc(C(=O)O)c(NCc2ccco2)cc1Cl` [FUR, Furosemide], the “FUR CLR, male compared to female rats” value in data set [1] is on record as 2 fold. In addition, the “Fraction excreted unchanged in urine, fe” value in data set [2] is “≈ 65%”.

For `O=C(O)c1cc(/N=N/c2ccc(S(=O)(=O)Nc3ccccn3)cc2)ccc1O` [sulfasalazine], in data set [3] (intravenous dosing), the “Effect of NOV on systemic clearance of sulfasalazine” value is “not influenced”. In data set [3] (oral administration), the “Increase of sulfasalazine AUC with NOV coadministration” value is recorded as 3.2 fold and the “Increase of sulfasalazine Cmax with NOV coadministration” value was 5.9 fold.

As usually defined, the IC50 is the concentration that gives 50% inhibition. In the case of `CO[C@@H]1[C@@H](OC(N)=O)[C@@H](O)[C@H](Oc2ccc3c(O)c(NC(=O)c4ccc(O)c(CC=C(C)C)c4)c(=O)oc3c2C)OC1(C)C` [NOV, Novobiocin], in data set [4], the “AUC and Cmax of NOV, male vs female rats” value was “comparable”. The CL renal in data set [4] (female rats) was […]; in data set [4] (male rats), […]. The “Food-effect on the PK of NOV” value in data set [4] (fed vs fasted state) was “no food-effect”. Besides, the IC50 in data set [5] is […]; in data set [6], […]; in data set [7], […].
